Measurements: PubChem BioAssay (NCI)
Several values for one entry are separate records, joined by “and”; a condition that tells them apart may be missing. Equal values may be shown once.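 A five-concentration, 48-hour dose response in 96-well plates underlies each endpoint, interpolated linearly between surrounding concentrations. Here, GI50 denotes the concentration required for 50% inhibition of growth. At the TGI there is no net growth.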

Legend:
Assay in all cases: NCI anticancer screen, dose series, 48 h
786-0 renal = system: 786-0 renal
ACHN renal = system: ACHN renal
HL-60(TB) leukemia = system: HL-60(TB) leukemia
HOP-92 NSCLC = system: HOP-92 NSCLC
IGROV1 ovarian = system: IGROV1 ovarian
MCF7 breast = system: MCF7 breast
MDA-MB-231 breast = system: MDA-MB-231 breast
OVCAR-4 ovarian = system: OVCAR-4 ovarian
SN12C renal = system: SN12C renal
T-47D breast = system: T-47D breast
U251 CNS = system: U251 CNS
UACC-62 melanoma = system: UACC-62 melanoma
MALME-3M melanoma = system: MALME-3M melanoma
NCI-H522 lung = system: NCI-H522 lung
SR leukemia = system: SR leukemia

SMILES	TGI (786-0 renal)	TGI (ACHN renal)	TGI (HL-60(TB) leukemia)	TGI (HOP-92 NSCLC)	TGI (IGROV1 ovarian)	TGI (MCF7 breast)	TGI (MDA-MB-231 breast)	TGI (OVCAR-4 ovarian)	TGI (SN12C renal)	TGI (T-47D breast)	TGI (U251 CNS)	TGI (UACC-62 melanoma)	TGI (MALME-3M melanoma)	TGI (NCI-H522 lung)	TGI (SR leukemia)	GI50 (IGROV1 ovarian)	GI50 (MALME-3M melanoma)	GI50 (NCI-H522 lung)
N#CCCN(CCC#N)c1ccc(/C=C2\N=C(c3ccccc3)N(NC(=O)c3ccncc3)C2=O)cc1	> 100 µM	> 100 µM	> 100 µM	> 100 µM	> 100 µM	> 100 µM	> 100 µM	> 100 µM	> 100 µM	> 100 µM	> 100 µM	> 100 µM						
CSc1ccc(C=C2N=C(c3ccccc3)N(c3cc(C(=O)c4ccccc4)ccc3N3C(=O)/C(=C/c4ccc(SC)cc4)N=C3c3ccccc3)C2=O)cc1	> 100 µM	> 100 µM	> 100 µM	> 100 µM	> 100 µM	> 100 µM	> 100 µM	> 100 µM	> 100 µM	> 100 µM	> 100 µM	> 100 µM						
O=C(O)C1CCCCN1CCc1c[nH]c2ccccc12 (configuration not stated)	> 100 µM	> 100 µM	> 100 µM	> 100 µM	> 100 µM	> 100 µM	> 100 µM	> 100 µM	> 100 µM	> 100 µM	> 100 µM	> 100 µM	> 100 µM	> 100 µM				
NC1=NC(=O)[C@H](CSCc2ccccc2)N1C(=O)OCc1ccccc1	> 100 µM	> 100 µM	> 100 µM		> 100 µM	> 100 µM	> 100 µM	> 100 µM	> 100 µM		> 100 µM	> 100 µM	> 100 µM	> 100 µM	> 100 µM			
CCC/C(Cl)=N/OC(=O)Nc1cccc(F)c1	3.2 µM	2.88 µM		3.18 µM	27.5 µM	8.85 µM	27.7 µM	25.4 µM	15.2 µM	6.34 µM	32.6 µM	32.6 µM	3.11 µM	1.05 µM				
O=C(CN1c2ccccc2Sc2ccccc21)n1cnc2ccccc21	> 100 µM	> 100 µM	> 100 µM	93.9 µM	> 100 µM	> 100 µM	> 100 µM	> 100 µM	> 100 µM	> 100 µM	> 100 µM	> 100 µM	> 100 µM					
CCOC(=O)c1cc(NC(=O)c2ccccc2)c(=O)n2c(cc3c(Cl)cccc32)c1O	> 100 µM	> 100 µM	> 100 µM	> 100 µM	> 100 µM	> 100 µM	> 100 µM	> 100 µM	> 100 µM		> 100 µM	> 100 µM	> 100 µM	> 100 µM	> 100 µM			
c1ccc2c(-c3ccnc(-c4c[nH]c5ccccc45)n3)c[nH]c2c1	4.6 µM	> 100 µM	30.8 µM	5.83 µM	14.7 µM	54.2 µM		> 100 µM	19.7 µM	26.9 µM	14.2 µM				19.4 µM			
COc1ccc(-c2c(C(=O)Nc3ccccc3)c(-c3ccccc3)n(C3OC(CO)C(O)C(O)C3O)c(=S)c2C#N)cc1 (configuration not stated)	> 100 µM	> 100 µM	> 100 µM	> 100 µM	> 100 µM	> 100 µM		> 100 µM	> 100 µM		> 100 µM	> 100 µM	> 100 µM	> 100 µM	> 100 µM			
CC(C)(C)OC(=O)N1CCC[C@H]1CSC[C@@H]1CCCN1C(=O)OC(C)(C)C	> 100 µM	82.2 µM		39.5 µM	> 100 µM	96.3 µM	> 100 µM	> 100 µM	> 100 µM	80.7 µM	90.7 µM	57.2 µM	63.5 µM	56 µM				
NC(=S)NS(=O)(=O)c1ccc(F)cc1	> 100 µM	> 100 µM	> 100 µM	> 100 µM	> 100 µM		> 100 µM	> 100 µM	> 100 µM	> 100 µM	> 100 µM	> 100 µM	> 100 µM	> 100 µM				
CC1=NN(c2ccccc2Cl)C2(C1)SCC(=O)N2c1nc2ccccc2s1 (configuration not stated)	> 100 µM	> 100 µM		> 100 µM	> 100 µM	> 100 µM	> 100 µM	> 100 µM	> 100 µM	> 100 µM	> 100 µM	> 100 µM	> 100 µM	> 100 µM				
C[C@H]1ON2CCC[C@@H]2[C@@H]1C(=O)N1C2CC3CCC2(CS1(=O)=O)C3(C)C (some centres not stated)	> 100 µM	> 100 µM	26.6 µM		> 100 µM	> 100 µM	> 100 µM	> 100 µM	> 100 µM	> 100 µM	> 100 µM	> 100 µM	> 100 µM	> 100 µM				
Cc1c(/C=N\NC(=S)N(C)CCN(C)C(=S)N/N=C\c2c(C)n(C)n(-c3ccccc3)c2=O)c(=O)n(-c2ccccc2)n1C	> 100 µM	> 100 µM		> 100 µM			> 100 µM	> 100 µM		> 100 µM	> 100 µM	> 100 µM	> 100 µM	> 100 µM	> 100 µM			
CCOP(=O)(OCC)OC1CC(n2cnc3c(N(CC)CC)ncnc32)OC1CO[Si](C)(C)C(C)(C)C (configuration not stated)	30 µM	28.8 µM	> 100 µM		32.3 µM	39.8 µM		29.5 µM	37.8 µM	27.8 µM	28.7 µM	28.2 µM	41.4 µM	27.6 µM	> 100 µM			
O=C1C2=Cc3ccccc3CCN2c2ccc([N+](=O)[O-])cc21	> 100 µM	> 100 µM	> 100 µM	> 100 µM	> 100 µM	> 100 µM	> 100 µM	> 100 µM	> 100 µM		> 100 µM	> 100 µM	> 100 µM	> 100 µM	> 100 µM			
CCOC(=O)C(NC(=O)Nc1ccccc1F)(OC)C(F)(F)F (configuration not stated)	> 100 µM	> 100 µM	> 100 µM		> 100 µM				> 100 µM	> 100 µM	> 100 µM				> 100 µM			
C/C(O)=C/c1nc2sc(C)c(C)c2c(=O)s1	> 100 µM	> 100 µM	> 100 µM	> 100 µM	> 100 µM	> 100 µM	> 100 µM	> 100 µM	> 100 µM	> 100 µM	> 100 µM	> 100 µM	> 100 µM					
COC(=O)/C=C(\S/C(=C(/c1ccccc1)n1cc(C(=O)OC)c(C(=O)OC)n1)c1ccccc1)C(=O)OC	> 100 µM	10.6 µM	12.6 µM		31.9 µM	22.9 µM	44.6 µM	29 µM	40.9 µM	14.1 µM	66.1 µM	94 µM	31.9 µM		32.6 µM			
CC(C)Cn1cnnc1NS(=O)(=O)c1cc(C(=O)NN)c(Cl)cc1S	> 10 µM	> 10 µM	> 10 µM	> 10 µM	> 10 µM	> 10 µM	> 10 µM	> 10 µM	> 10 µM	> 10 µM	> 10 µM	> 10 µM	> 10 µM	> 10 µM				
O=C(CC(C(=O)c1ccsc1)c1cccs1)c1ccsc1 (configuration not stated)	> 100 µM	> 100 µM	> 100 µM		> 100 µM	> 100 µM	> 100 µM	> 100 µM	> 100 µM	84.3 µM	> 100 µM	> 100 µM	> 100 µM		> 100 µM			
O=C1NCC2=C1CCC1c3ccccc3CCN21 (configuration not stated)	> 100 µM	> 100 µM	> 100 µM	> 100 µM	> 100 µM				> 100 µM		> 100 µM	> 100 µM	> 100 µM	> 100 µM	> 100 µM			
COc1cccc(/C=N/[N-]C(N)=O)c1[O-].[OH3+].[Zn+2]	> 100 µM	> 100 µM		> 100 µM	> 100 µM			> 100 µM	> 100 µM		> 100 µM	> 100 µM	> 100 µM	> 100 µM	> 100 µM			
O=c1[nH]nc(Cc2ccc(Cl)cc2)n1Nc1ccccc1	> 100 µM	> 100 µM		> 100 µM	> 100 µM	> 100 µM	> 100 µM	> 100 µM	> 100 µM	> 100 µM	> 100 µM	> 100 µM	> 100 µM					
COC1(CCO)CC=CCC1(CCO)OC (configuration not stated)	> 100 µM	> 100 µM	> 100 µM	> 100 µM	> 100 µM	> 100 µM		> 100 µM	> 100 µM	> 100 µM		> 100 µM	> 100 µM	> 100 µM				
COc1cc(-c2c(C(C)=O)c(-c3ccccc3)n(C3OC(COC(C)=O)C(OC(C)=O)C(OC(C)=O)C3OC(C)=O)c(=S)c2C#N)ccc1O (configuration not stated)	> 100 µM	> 100 µM		> 100 µM	> 100 µM	> 100 µM		> 100 µM	> 100 µM		> 100 µM	> 100 µM	> 100 µM	90.4 µM and > 100 µM	> 100 µM	31.8 µM and > 100 µM	37 µM and > 100 µM	18.6 µM and 40.2 µM
